Consider one compound from ChEMBL document CHEMBL4354883, “Design, Synthesis, and Biological Evaluation of HSP90 Inhibitor-SN38 Conjugates for Targeted Drug Accumulation” (J Med Chem, 2020).

Structures are written as SMILES. Activity calls are given as the source filed them. No cut-off for these calls is given here.

For one data set, the system named is MIA PaCa-2. As to the kind of experiment: Antiproliferative activity against human MIAPaCa2 cells assessed as reduction in cell viability after 72 hrs by SRB assay. The format is functional, cell-based. As to conditions: MIA PaCa-2, 72 h. On the technique in general: The SRB assay estimates cell density from bound dye.
The subject of data set [1] is HCT-116. As to the kind of experiment: Downregulation of TOP1 expression in human HCT116 cells after 24 hrs by Western blot analysis. The format is functional, cell-based.
Data set [2] can be described thus: Drug uptake in human A549 cells assessed as blue shift in absorption spectrum at 5 uM by UV-visible absorption spectral analysis. Conditions: a549, 5 µM. The data set is classed as ADME, cell-based.
The subject of data set [3] is A549. Description: Downregulation of TOP1 expression in human A549 cells after 24 hrs by Western blot analysis. The data set is classed as functional, cell-based.
Data set [4] concerns HCT-116. Description: Antiproliferative activity against human HCT116 cells assessed as reduction in cell viability after 72 hrs by SRB assay. The data set is classed as functional, cell-based. As to conditions: HCT-116, 72 h.
The nature of data set [5]: Drug uptake in human A549 cells assessed as maximum emission peaks at 430 nm at 5 uM by fluorescence emission spectral analysis. The format is ADME, cell-based. Conditions: a549, 5 µM.
For a further data set, the system named is CAPAN-1. As to the kind of experiment: Antiproliferative activity against human Capan1 cells assessed as reduction in cell viability after 72 hrs by SRB assay. The data set is classed as functional, cell-based. Conditions: CAPAN-1, 72 h.
The nature of data set [6]: Prodrug release in tumor of mouse xenografted with human Capan1 cells assessed as increase in 7-ethyl-10-hydroxycamptothecin level at 36 mg/kg, iv after 24 hrs by LC-MS/MS analysis. The format is ADME, organism-based, Neoplasm. As to conditions: in vivo. Background: In xenograft studies the graft and the host belong to different species.
The subject of another data set is L02. Description: Cytotoxicity agains human HL7702 cells assessed as reduction in cell viability after 72 hrs by SRB assay. The format is cell-based. As to conditions: L02, 72 h.
Data set [7] deals with A549. As to the kind of experiment: Antiproliferative activity against human A549 cells assessed as reduction in cell viability after 72 hrs by SRB assay. The format is functional, cell-based. Conditions: A549, 72 h.
The subject of data set [8] is Mus musculus. As to the kind of experiment: In vivo inhibition of HSP90 in mouse xenografted with human Capan1 cells assessed as decrease in AKT protein expression at 36 mg/kg, iv for every 2 days measured at 2 hrs post last dose by Western blot analysis. The data set is classed as functional, organism-based.
Data set [9] in a line: Prodrug release in tumor of mouse xenografted with human HCT116 cells assessed as increase in 7-ethyl-10-hydroxycamptothecin level at 15 mg/kg, iv administered as single dose by LC-MS/MS analysis. The format is ADME, organism-based, Neoplasm. Conditions: in vivo.
In data set [10] the test system is Mus musculus. As to the kind of experiment: Down regulation of topoisomerase 1 expression in mouse xenografted with human Capan1 cells at 36 mg/kg, iv for every 2 days measured at 2 hrs post last dose by Western blot analysis. The format is functional, organism-based.
Data set [11] deals with Mus musculus. Description: In vivo inhibition of topoisomerase 1 in mouse xenografted with human Capan1 cells assessed as increase in phosphorylated KAP1 expression at 36 mg/kg, iv for every 2 days measured at 2 hrs post last dose by Western blot analysis. The format is functional, organism-based.
In data set [12] the test system is Mus musculus. Description: In vivo inhibition of HSP90 in mouse xenografted with human Capan1 cells assessed as increase in HSP70 protein expression at 36 mg/kg, iv for every 2 days measured at 2 hrs post last dose by Western blot analysis. The data set is classed as functional, organism-based.
A short description of data set [13]: Drug uptake in human A549 cells assessed as blue fluorescence at 5 uM after 12 hrs by confocal laser scanning microscopic analysis. The data set is classed as ADME, cell-based. Conditions: a549, 12 h.
Data set [14] is described as follows: Prodrug release in mouse plasma xenografted with human HCT116 cells assessed as increase in 7-ethyl-10-hydroxycamptothecin level at 15 mg/kg, iv administered as single dose and measured after 30 mins to 72 hrs by LC-MS/MS analysis. The data set is classed as ADME, organism-based. Conditions: in vivo.

Usually IC50 stands for the midpoint of a concentration-inhibition curve. Regarding `CCc1c2c(nc3ccc(OC(=O)N4CCC(N5CCCCC5)CC4)cc13)-c1cc3c(c(=O)n1C2)COC(=O)[C@]3(O)CC` [IRINOTECAN], the IC50 in the data set with MIA PaCa-2 came out at 1.33 µM; in the data set with HCT-116 [4], 0.498 µM; in the data set on CAPAN-1, 1.12 µM; in the data set on L02, 1.3 µM; in the data set on A549 [7], 1.56 µM. Besides, the inhibition result in the data set on HCT-116 [1], with Mus musculus [10] and in the data set with Mus musculus [11] was “Active” in each case. Moreover, the Drug uptake result in data set [2] was “Active”; in data set [5] it was “Active”; in [13] it was “Not Active”. In addition, the TOP1 downregulation entry with A549 [3] was “Active”. Besides, the Drug metabolism entry is given as “Metabolite_Notdetected” in data set [6], “Metabolite_Detected” in data set [9] and “Metabolite_Detected” in [14]. Further, the inhibition result in the data set on Mus musculus [8] and with Mus musculus [12] was “inactive” in each case.
